Reference: US6806230B1, “Pyrimidine derivatives and herbicides containing them” (Kumiai Chemical Industry Co., Ltd., priority 1999, dated 2004)

Tests used:
Type in all cases: in vivo
monochoria (Mo) [1] = experiment: Test Example 1: herbicidal effects by flooded paddy field treatment; parameters: herbicidal effects, Mo (monochoria):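 0-5 growth inhibition grade; 5 = over 90%; 4 = 70-90%; 3 = 50-70%; 2 = 30-50%; 1 = 10-30%; 0 = under 10%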; conditions: dose 100 g active ingredient per 10 ares, examined on the 21st day after treatment, standards of Table 44
Method in brief: (§1)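 Herbicidal effect is a graded score assigned 21 days after treatment. Application was one day after sowing into flooded (3 cm) puddled paddy soil, with diluted wettable powder dropped onto the water at 100 g active ingredient per 10 ares. Plants were kept in a greenhouse.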

barnyard grass (Ec) = experiment: Test Example 2: herbicidal effects by upland soil treatment; parameters: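 0-5 growth inhibition grade; 5 = over 90%; 4 = 70-90%; 3 = 50-70%; 2 = 30-50%; 1 = 10-30%; 0 = under 10%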; conditions: dose 100 g active ingredient per 10 ares, examined on the 21st day after treatment
Method in brief: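 Pre-emergence test: barnyard grass and green foxtail sown in upland soil, then soil surface sprayed with wettable-powder formulation at 100 g active ingredient per 10 ares (100 l per 10 ares). Grown in greenhouse; herbicidal effect scored on a rating scale 21 days after treatment.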

barnyard grass (Eo) [2] = experiment: Test Example 1: herbicidal effects by flooded paddy field treatment; parameters: herbicidal effects, Eo (barnyard grass):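 0-5 growth inhibition grade; 5 = over 90%; 4 = 70-90%; 3 = 50-70%; 2 = 30-50%; 1 = 10-30%; 0 = under 10%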; conditions: dose 100 g active ingredient per 10 ares, examined on the 21st day after treatment, standards of Table 44
Method in brief: as §1

monochoria (Mo) [3] = experiment: Test Example 4: selectivity for a crop plant by flooded paddy field treatment; parameters: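 0-5 growth inhibition grade; 5 = over 90%; 4 = 70-90%; 3 = 50-70%; 2 = 30-50%; 1 = 10-30%; 0 = under 10%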; conditions: monochoria, dose 25 gai/10a, 21st day after treatment, index per Table 44
Procedure: (§2) In a 100 cm^2 plastic pot, a paddy field soil was filled and paddled. Then, seeds of barnyard grass (Eo) and monochoria (Mo) were sown, and rice (Or) of second leaf stage was transplanted, and water was introduced to a depth of 3 cm. Next day, a wettable powder prepared in accordance with Formulation Example 1 was diluted with water and dropwise applied to the water surface. The dose was 25 g of the active ingredient per 10 ares. Thereafter, cultivation was carried out in a green house, and on the 21st day after the treatment, the herbicidal effects were examined in accordance with the standards of Table 44.

rice (Or) = experiment: as above; parameters: scale not given here; conditions: rice transplanted at second leaf stage, dose 25 gai/10a, 21st day after treatment, index per Table 44
Procedure: as §2

barnyard grass (Eo) [4] = experiment: as above; parameters: scale not given here; conditions: barnyard grass, dose 25 gai/10a, 21st day after treatment, index per Table 44
Procedure: as §2

Row | SMILES | herbicidal effects, Mo (monochoria) (monochoria (Mo) [1]) | Ec (herbicidal effects, index) (barnyard grass (Ec)) | herbicidal effects, Eo (barnyard grass) (barnyard grass (Eo) [2]) | Mo (herbicidal effect index) (monochoria (Mo) [3]) | Or (herbicidal effect index on crop) (rice (Or)) | Eo (herbicidal effect index) (barnyard grass (Eo) [4])
1 | C#CCN(C(=O)N(C)C(c1cncnc1C(F)(F)F)C(C)C)c1ccc(F)cc1 (racemic) [1-533] | 5 | 5 | 5 | 5 | 1 | 5
2 | CN(C(=O)Cc1ccc(C(F)(F)F)cc1)C(c1ccccc1)c1cncnc1C(F)(F)F (racemic) [1-306] | 5 | 5 | 5 | 5 | 1 | 5
3 | C=CCN(C(=O)Cc1ccc(C)cc1)C(c1cncnc1C(F)(F)F)C(C)C (racemic) [1-521] | 5 | 5 | 5 | 5 | 1 | 5
4 | C#CCN(C(=O)Cc1ccc(F)c(F)c1)C(c1cncnc1C(F)(F)F)C(C)C (racemic) [1-614] | 5 | 5 | 5 | 5 | 1 | 5
5 | C#CCN(C(=O)Cc1ccc(F)cc1)C(c1cncnc1CC)C(C)(C)C (racemic) [1-627] | 5 | 5 | 5 | 5 | 1 | 5
6 | C#CCN(C(=O)Cc1ccccc1)C(c1cncnc1CC)C(C)(C)C (racemic) [1-626] | 5 | 5 | 5 | 5 | 1 | 5
7 | Cc1ccccc1C(c1cncnc1C(F)(F)F)N(C)C(=O)Cc1ccc(F)cc1 (racemic) [1-551] | 5 | 5 | 5 | 5 | 0 | 5
8 | CN(C(=O)Cc1ccc(Cl)cc1)C(c1ccccc1F)c1cncnc1C(F)(F)F (racemic) [1-548] | 5 | 5 | 5 | 5 | 1 | 5
9 | CC(C)C(c1cncnc1C(F)(F)F)N(C)C(=O)C(C)(C)c1ccc(Cl)cc1 (racemic) [1-329] | 5 | 5 | 5 | 5 | 1 | 5
10 | C=CCN(C(=O)Cc1ccc(Cl)cc1)C(c1cncnc1C(F)(F)F)C(C)C (racemic) [1-520] | 5 | 5 | 5 | 5 | 1 | 5
11 | CN(C(=O)Cc1ccsc1)C(c1cncnc1C(F)(F)F)C1(C)CC1 (racemic) [2-56] | 5 | 5 | 5 | 5 | 1 | 5
12 | CCN(C(=O)N(C)C(c1cncnc1C(F)(F)F)C(C)C)c1ccccc1 (racemic) [1-425] | 5 | 5 | 5 | 5 | 1 | 5
13 | CC(C)C(c1cncnc1C(F)(F)F)N(C)C(=O)Cc1cc(F)cc(F)c1F (racemic) [1-444] | 5 | 5 | 5 | 5 | 1 | 5
14 | Cc1ccc(CC(=O)N(C)C(c2ccccc2C)c2cncnc2C(F)(F)F)cc1 (racemic) [1-553] | 5 | 5 | 5 | 5 | 1 | 5
15 | CC(C)C(c1cncnc1C(F)(F)F)N(C)C(=O)Cc1cc(F)c(F)c(F)c1 (racemic) [1-418] | 5 | 5 | 5 | 5 | 1 | 5
16 | CC(C)C(c1cncnc1C(F)(F)Cl)N(C)C(=O)OCc1ccccc1 (racemic) [1-639] | 5 | 5 | 5 | 4 | 1 | 5
17 | CCC(c1cncnc1C(C)C)N(C)C(=O)Cc1ccc(C)cc1 (racemic) [1-439] | 5 | 5 | 5 | 5 | 1 | 5
18 | CON=CC(c1cncnc1C(C)C)N(C)C(=O)Cc1ccc(C)cc1 (racemic) [1-465] | 5 | 5 | 5 | 5 | 0 | 5
19 | Cc1ccc(CC(=O)N(C)C(c2ccccc2)c2cncnc2C(F)(F)F)s1 (racemic) [2-32] | 5 | 5 | 5 | 5 | 1 | 5
20 | CCN(C(=O)Cc1ccsc1)C(c1cncnc1C(F)F)C(C)C (racemic) [2-8] | 5 | 5 | 5 | 5 | 0 | 5
21 | CCC(c1cncnc1C(C)(C)C)N(C)C(=O)Cc1ccc(C)cc1 (racemic) [1-573] | 5 | 5 | 5 | 5 | 1 | 5
22 | CON=Cc1ncncc1C(C(C)C)N(C)C(=O)Cc1ccc(Cl)cc1 (racemic) [1-498] | 5 | 5 | 5 | 5 | 0 | 5
